The numbers were not newly measured in patent US20140148379A1, “Control of Unwanted Bacteria in Fermentation Systems with Bacteriocin” (priority 2012, published 2014), which cites them from elsewhere.

In the data set the test system is Staphylococcus aureus. To be noted: nisin combined with the endolysin produced by Staphylococcal phage; contaminated milk.

Consider nisin, for which the effect of combination entry is listed as “strong synergistic effect”.
